Measurements as given in ChEMBL document CHEMBL3044754, “Physcion, a natural anthraquinone derivative, enhances the gene expression of leaf-specific thionin of barley against Blumeria graminis” (2010).
Calls of active or inactive are those of the source. No cut-off for these calls is given here.

What was measured:
Hordeum vulgare [1] = assay: Induction of resistance to Blumeria graminis f. sp. hordei isolate W14 infection in Hordeum vulgare cv. Edamai 9 (barley) assessed as upregulation of leaf-specific thionin gene using Contig1570_s_at as probe at 10 mg/l after 8 hr by qRT-PCR analysis relative to untreated control; format: functional
Hordeum vulgare [2] = assay: Induction of resistance to Blumeria graminis f. sp. hordei isolate W14 infection in Hordeum vulgare cv. Edamai 9 (barley) assessed as upregulation of leaf-specific thionin gene using Contig1567_x_at as probe at 10 mg/l after 8 hr by qRT-PCR analysis relative to untreated control; format: functional
Hordeum vulgare [3] = assay: Induction of resistance to Blumeria graminis f. sp. hordei isolate W14 infection in Hordeum vulgare cv. Edamai 9 (barley) assessed as downregulation of Pathogenesis-related protein 4 gene using Contig2550_x_at as probe at 10 mg/l after 8 hr by microarray analysis relative to untreated control; format: functional
Hordeum vulgare [4] = assay: (§1) Induction of resistance to Blumeria graminis f. sp. hordei isolate W14 infection in Hordeum vulgare cv. Edamai 9 (barley) assessed as downregulation of Bsi1 protein gene using HD04G07u_s_at as probe at 10 mg/l after 8 hr by microarray analysis relative to untreated control; format: functional
Hordeum vulgare [5] = assay: Induction of resistance to Blumeria graminis f. sp. hordei isolate W14 infection in Hordeum vulgare cv. Edamai 9 (barley) assessed as downregulation of Oxalate oxidase gene using Contig3017_at as probe at 10 mg/l after 8 hr by microarray analysis relative to untreated control; format: functional
Hordeum vulgare [6] = assay: Induction of resistance to Blumeria graminis f. sp. hordei isolate W14 infection in Hordeum vulgare cv. Edamai 9 (barley) assessed as downregulation of Pathogenesis-related protein gene using Contig4054_s_at as probe at 10 mg/l after 8 hr by microarray analysis relative to untreated control; format: functional
Hordeum vulgare [7] = assay: Induction of resistance to Blumeria graminis f. sp. hordei isolate W14 infection in Hordeum vulgare cv. Edamai 9 (barley) assessed as downregulation of Peroxidase gene using HVSMEm0005P05r2_at as probe at 10 mg/l after 8 hr by microarray analysis relative to untreated control; format: functional
Hordeum vulgare [8] = assay: Induction of resistance to Blumeria graminis f. sp. hordei isolate W14 infection in Hordeum vulgare cv. Edamai 9 (barley) assessed as upregulation of Phytoene synthase E1 gene using Contig13305_at as probe at 10 mg/l after 8 hr by microarray analysis relative to untreated control; format: functional
Hordeum vulgare [9] = assay: as §1, with “upregulation” for “downregulation”, “Xyloglucan endotransglycosylase-like” for “Bsi1”, “Contig2669_at” for “HD04G07u_s_at”; format: functional
Hordeum vulgare [10] = assay: Induction of resistance to Blumeria graminis f. sp. hordei isolate W14 infection in Hordeum vulgare cv. Edamai 9 (barley) assessed as upregulation of stress-induced gene using Contig3427_at as probe at 10 mg/l after 8 hr by microarray analysis relative to untreated control; format: functional
Hordeum vulgare [11] = assay: Induction of resistance to Blumeria graminis f. sp. hordei isolate W14 infection in Hordeum vulgare cv. Edamai 9 (barley) assessed as upregulation of stress-induced gene using Contig3426_at as probe at 10 mg/l after 8 hr by microarray analysis relative to untreated control; format: functional
Hordeum vulgare [12] = assay: Induction of resistance to Blumeria graminis f. sp. hordei isolate W14 infection in Hordeum vulgare cv. Edamai 9 (barley) assessed as upregulation of leaf-specific thionin gene using Contig1582_x_at as probe at 10 mg/l after 8 hr by microarray analysis relative to untreated control; format: functional
Hordeum vulgare [13] = assay: Induction of resistance to Blumeria graminis f. sp. hordei isolate W14 infection in Hordeum vulgare cv. Edamai 9 (barley) assessed as upregulation of leaf-specific thionin gene using Contig1570_s_at as probe at 10 mg/l after 8 hr by microarray analysis relative to untreated control; format: functional
Hordeum vulgare [14] = assay: Induction of resistance to Blumeria graminis f. sp. hordei isolate W14 infection in Hordeum vulgare cv. Edamai 9 (barley) assessed as upregulation of leaf-specific thionin gene using Contig1580_x_at as probe at 10 mg/l after 8 hr by microarray analysis relative to untreated control; format: functional
Hordeum vulgare [15] = assay: Induction of resistance to Blumeria graminis f. sp. hordei isolate W14 infection in Hordeum vulgare cv. Edamai 9 (barley) assessed as upregulation of leaf-specific thionin gene using Contig1567_x_at as probe at 10 mg/l after 8 hr by microarray analysis relative to untreated control; format: functional
Hordeum vulgare [16] = assay: Induction of systemic resistance to Blumeria graminis f. sp. hordei isolate W14 infection in Hordeum vulgare cv. Edamai 9 (barley) assessed as decrease in colonies on leaf at 10 mg/l up to 216 hr relative to untreated-control; format: functional, organism-based
Hordeum vulgare [17] = assay: Induction of localised resistance to Blumeria graminis f. sp. hordei isolate W14 infection in Hordeum vulgare cv. Edamai 9 (barley) assessed as decrease in colonies on leaf at 10 mg/l up to 216 hr relative to untreated-control; format: functional, organism-based
Blumeria hordei [18] = assay: Antifungal activity against Blumeria graminis f. sp. hordei isolate W14 infected barley cv. Edamai 9 assessed as disease index at 10 mg/l after 15 days (reference value: 76.5%); format: functional
Blumeria hordei [19] = assay: Antifungal activity against Blumeria graminis f. sp. hordei isolate W14 infected barley cv. Edamai 9 assessed as conidial germination at 10 mg/l after 15 days (reference value: 92.4%); format: functional
Hordeum vulgare [20] = assay: Induction of resistance to Blumeria graminis f. sp. hordei isolate W14 infection in Hordeum vulgare cv. Edamai 9 (barley) assessed as upregulation of leaf-specific thionin gene using Contig1576_at as probe at 10 mg/l after 8 hr by microarray analysis relative to untreated control; format: functional
Blumeria hordei [21] = assay: Antifungal activity against Blumeria graminis f. sp. hordei isolate W14 assessed as conidial germination at 10 mg/l after 48 hr (reference value: 47.3%); format: functional

COc1cc(O)c2c(c1)C(=O)c1cc(C)cc(O)c1C2=O [PHYSCION]
fold change (FC) (Hordeum vulgare [1]): 5.61 | fold change (FC) (Hordeum vulgare [2]): 4.77 | fold change (FC) (Hordeum vulgare [3]): -2.34 | fold change (FC) (Hordeum vulgare [4]): -2.77 | fold change (FC) (Hordeum vulgare [5]): -2.87 | fold change (FC) (Hordeum vulgare [6]): -2.94 | fold change (FC) (Hordeum vulgare [7]): -2.96 | fold change (FC) (Hordeum vulgare [8]): 2.09 | fold change (FC) (Hordeum vulgare [9]): 2.44 | fold change (FC) (Hordeum vulgare [10]): 2.41 | fold change (FC) (Hordeum vulgare [11]): 3.04 | fold change (FC) (Hordeum vulgare [12]): 4.26 | fold change (FC) (Hordeum vulgare [13]): 4.3 | fold change (FC) (Hordeum vulgare [14]): 4.74 | fold change (FC) (Hordeum vulgare [15]): 19.91 | Activity (Hordeum vulgare [16]): inactive | Activity (Hordeum vulgare [17]): Active | PDI (Blumeria hordei [18]): 4.4% | Activity (Blumeria hordei [19]): 4.5% | fold change (FC) (Hordeum vulgare [20]): 9.34 | Activity (Blumeria hordei [21]): 56.6%
